Results reported in patent US8772243B2, “Methods for predicting the response to anti-cancer treatment with an agonist of TLR7 or an agonist of TLR8” (Inserm (Institut National de la Sante et de la Recherche …, priority 2008, dated 2014).

Assays:
Type in all cases: cell-based, human
[1] = tested on: A549 cells; test: Tumor cell proliferation assay (Alamar blue reduction); conditions: 10 μg/ml, ten days
Method: (§1) FIG. 4 TLR7 and 8 induce survival of lung tumor cells. (A) A549 cells were unstimulated, stimulated with loxoribine (10 μg/ml), Poly U (10 μg/ml), or Gardiquimod(10μg/ml) and incubated with Alamar blue for 10 days. Reduction of Alamar blue was then determined by spectrophotometry at 570 and 600 nm. The percentage of reduced Alamar blue was calculated as described by the manufacturer. A549 cells were unstimulated or stimulated with loxoribine, Poly U, Gardiquimod, etoposide, or cycloheximide for 24 h. (B) The percentage of dead cells was determined by Trypan blue exclusion. (C) The DNA content was measured by IP staining after RNAse A treatment. The percentages indicate the proportion of subdiploid (G0/G1) and […]. Data represent mean values±SD from 3 independent experiments (*p<0.05; ** p<0.01, Student test). (D) A549 cells were cultured for 6 h in the presence of loxoribine, Poly U, or Gardiquimod, and the expression of Bcl-2 was assayed using Taq Man Low Density Array technology. The ΔCT values for Bcl-2 expression were calculated by subtraction of the CT value obtained for the 18S housekeeping gene. The ΔΔCT values were obtained by subtraction of ΔCT values for unstimulated cells from those obtained for stimulated cells. The fold increase (arbitrary unit) was obtained by 2^−ΔΔCT.
Human lung cancer cell lines were seeded in 96-well plates (800 cells per well) and left unstimulated or were stimulated with loxoribine, Poly U, or Gardiquimod. The proliferation assay was performed with Alamar blue (AbD Serotec, Cergy Pontoise, France) according to the manufacturer's instructions. Briefly, cells were seeded and stimulated with TLR ligands in 100 μl of medium, and 10 μl of Alamar Blue was added. The optical density in each well was determined at 540 nm and 570 nm after 10 days of culture, and the percentage of reduced Alamar blue was determined. The percentage of reduced Alamar blue in unstimulated cells was determined as 100%, and the percentages of the stimulated cells were determined relative to this value.

[2] = tested on: A549 cells; test: Cell cycle analysis (propidium iodide staining); conditions: PI staining
Method: as §1
A549 cells were cultured in the presence of loxoribine, Poly U, Gardiquimod, etoposide, or cycloheximide. After 48 h, the cells were harvested, washed in cold PBS, and fixed with 2 ml of 70% cold ethanol in PBS for 2 h at 4° C. After centrifugation, the supernatant was removed and the pellet was rinsed with 0.5% PBS Tween. It was then incubated with […] of RNAse A and 50 μg of propidium iodide in PBS. Propidium iodide staining was determined with a FACScalibur cytometer.

[3] = tested on: Bcl-2 expression in A549 cells; test: Bcl-2 expression, Taq Man Low Density Array, A549; conditions: 6 h, RT-PCR
Method: as §1, with “The fold increase (arbitrary unit) was obtained by 2^−ΔΔCT.” left out
Total RNA was extracted from A549 or SK-MES cells stimulated with loxoribine, Poly U, or Gardiquimod for 6 h or from purified human lung cancer cells using the RNeasy isolation-kit RNA (Qiagen, Courtaboeuf, France). The integrity and the quantity of the RNA were evaluated with a bioanalyzer-2100 (Agilent Technologies). All samples were assessed for gene expression analysis using the Taq Man Low-Density Array angiogenesis and immune panel (Applied Biosystem). […] Quantitative real-time TaqMan-PCR was performed using Low-Density-Arrays and the 7900 robotic real-time PCR-system (Applied-Biosystems). […] Data were analyzed using the SDS Software v2.2 (Applied-Biosystems). The ΔCT values were calculated for each gene by subtraction of the CT value of the 18S housekeeping gene from the CT of the gene of interest. […]

[4] = tested on: Bcl-2 expression in SCC SK-MES cells; test: Bcl-2 expression, SK-MES; conditions: data not shown
Method: Total RNA was extracted from A549 or SK-MES cells stimulated with loxoribine, Poly U, or Gardiquimod for 6 h or from purified human lung cancer cells using the RNeasy isolation-kit RNA (Qiagen, Courtaboeuf, France). The integrity and the quantity of the RNA were evaluated with a bioanalyzer-2100 (Agilent Technologies). All samples were assessed for gene expression analysis using the Taq Man Low-Density Array angiogenesis and immune panel (Applied Biosystem). The RT-PCR experiments were carried-out according to the manufacturer's instructions (Applied-Biosystems). Quantitative real-time TaqMan-PCR was performed using Low-Density-Arrays and the 7900 robotic real-time PCR-system (Applied-Biosystems). The 18S primers and probes were used as internal controls. Data were analyzed using the SDS Software v2.2 (Applied-Biosystems). The ΔCT values were calculated for each gene by subtraction of the CT value of the 18S housekeeping gene from the CT of the gene of interest. The ΔΔCT values were obtained by subtraction of the ΔCT values for unstimulated cells from the […]. The fold increase (arbitrary unit) was obtained by 2^−ΔΔCT.

[5] = tested on: A549 and SK-MES cells; test: Chemoresistance assay (Trypan blue and Alamar blue); conditions: Alamar blue reduction
Method: FIG. 5 TLR7 and 8 induce chemoresistance of lung tumor cells. A549 (A-C) or SK-MES cells (D-F) were cultured with or without loxoribine or Poly U for 48 h, and then left untreated or were treated with cycloheximide, cisplatine, carboplatine, doxorubicine, or Navelbine. After 36 h, the percentage of dead cells was determined by Trypan blue exclusion (A, D) and cell viability was analyzed by the reduction of Alamar blue (B, C, E and F). Data represent mean values±SD from 3 independent experiments (*p<0.05; **p<0.01, ***p<0.001, Student test).
A549 and SK-MES cells were seeded in 96-well plates (1000 cells per well) and left unstimulated or were stimulated with loxoribine, Poly U, or Gardiquimod for 48 h. Cisplatine, carboplatine, doxorubicine, Navelbine, or cycloheximide was then added for an additional 36 h. The optical density in each well was determined 24 h after the addition of Alamar blue at 540 nm and 570 nm. Alternatively, viable and dead cells were counted using Trypan blue.

Compound | increase in reduction of Alamar blue versus unstimulated cells [1] [%] | proportion of cells in G0/G1 or G2/M phases versus unstimulated cells [2] | Bcl-2 expression compared to untreated cells [3] | increase in Bcl-2 expression [4] [fold] | cell viability after chemotherapy when stimulated prior to induction of apoptosis [5]
Poly U | 20 | did not observe any significant differences | increased expression of Bcl-2 | 100 | significantly higher viability
C=CCn1c(=O)n([C@@H]2O[C@H](CO)[C@@H](O)[C@H]2O)c2nc(N)[nH]c(=O)c21 [loxoribine, 7-allyl-7,8-dihydro-8-oxo-guanosine] | 20 | did not observe any significant differences | increased expression of Bcl-2 | 100 | significantly higher viability
